Assay results as given in patent US5877026A, “Analgesic peptides from venom of Grammostola spatulata and use thereof” (priority 1998, dated 1999).
Where no end group is shown, it is not given here.

Tests used:
Type in all cases: in vivo, rat
[1] = tested on: Sprague Dawley rats; assay: Acute inflammatory pain, carrageenan paw withdrawal latency; conditions: for Mean Latency Time In Seconds ± SEM, 30 minutes post treatment / Mean Latency Time In Seconds ± SEM, 60 minutes post treatment: 3 nmol intrathecal cannula; for Mean Latency Time In Seconds ± SEM, 30 minutes post treatment: given after 150 min post carrageenan; for Mean Latency Time In Seconds ± SEM, 60 minutes post treatment: predetermined cut-off value 20.8 sec
Description: Tissue injury results in inflammation and hyperalgesia (i.e. increased magnitude or duration of pain response to supra threshold noxious stimuli) at both the site of injury and at adjacent tissue sites. To assess the anti-hyperalgesic activity of GsAF II in inflammatory pain conditions, paw withdrawal latencies were determined in adult 350-400 gram male Sprague Dawley rats following the unilateral injection of carrageenan, a seaweed extract, into the hindpaw in accordance with the method of Hargreaves et al, Pain, 32:77-88, 1988. Briefly, withdrawal latencies are measured by placing the rat on a glass plate and focusing radiant heat from the underside of the plate toward the hindpaw surface. Latencies values are recorded in seconds to withdrawal of the hindpaw from the surface of the plate. Basal measurements are made prior to injection of the carrageenan (4 mg/hindpaw), followed by a measurement at 150 min post carrageenan injection to obtain the level of hyperalgesic response. Subsequent to the second measurement, GsAF II or vehicle (i.e. 0:1% BSA/saline) is administered through an indwelling intrathecal cannula positioned within the lumbar enlargement of the spinal cord. Anti-hyperalgesic activity is determined by measuring paw withdrawal latencies at various time intervals following compound administration. Concurrent with the paw withdrawal latencies, physical measurements of paw volume and paw temperature are recorded to detect anti-inflammatory and anti-pyretic activities.

[2] = tested on: Sprague-Dawley rats; assay: Tail flick latency
From the text: This test measures the time interval required for a rat to withdraw its tail, via a spinally mediated reflex mechanism, from a high intensity light source (IITC Inc./Life Sciences Instruments, Woodland Hills, Calif. 91367) focally applied to the dorsal surface of the appendage. The intensity of the light beam has been experimentally defined such that naive animals will withdraw their tails within 2 to 4 seconds. A maximum cut off time for the light source has been set at ten seconds to reduce the amount of secondary tissue damage.
Data is expressed either as absolute time or a percentage of the maximal possible effect (MPE) which is described by the following equation where 10 seconds is the maximum: [formula] (Latency refers to the amount of time before the animal removed its appendage from the light source.)
(§1) With minimal restraint, peptide GsAF I was injected intrathecally (i.th.) into young (75-150 gram) male Sprague-Dawley rats (Charles Rivers Laboratories, Wilmington, Mass. 01887). I.th. injections were made into the spinal subarachnoid space between lumbar spinous processes L4 and L5 using 10 microliter Hamilton syringes equipped with 3/8 inch by 28G needles. Dosing levels were based upon concentrations deduced from ultraviolet absorbance values at 280 nm using an extinction coefficient of 18710. Injection volume was 10 microliters. The injection vehicle was saline or 0.1% bovine serum albumin(BSA)/saline. The rats were pretreated with GsAF I 30 minutes prior to exposure to the light source.
as §1, with “GsAF II” for “GsAF I”, “Wilmington, Mass.))” for “Wilmington, Mass. 01887). I.th. injections were made”, “using the deduced molar” for “using an”, “of 24310.” for “of 18710.”, “GsAF II 15” for “GsAF I 30”

[3] = tested on: Sprague Dawley rats; conditions: i.th.; two treatment arms
[4] = tested on: opioid receptors; assay: Opioid receptor testing (opioid antagonist pretreatment)
Description: Animals were then tested in the tail flick test (Example 3) and von Frey tests (Example 5).

[5] = 3 nmol group (n = 4), before compound administration
[6] = 583 picomoles (2.33 micrograms) i.th., 15 minutes pretreatment

YCQKWMWTCDEERKCCEGLVCRLWCKKKIEW (cysteine pairing not given here) [GsAF II]
Mean Latency Time In Seconds ± SEM, 150 minutes post carrageenan injection [1, 5]: 3.0 ± 0.81 s | Mean Latency Time In Seconds ± SEM, base latency prior to carrageenan injection [1, 5]: 8.3 ± 1.2 s | Mean Latency Time In Seconds ± SEM, 30 minutes post treatment [1]: 17.82 ± 3.78 s | Mean Latency Time In Seconds ± SEM, 30 minutes post treatment ([1]; listed as GsAFII): 17.82 ± 3.78 s | Mean Latency Time In Seconds ± SEM, 60 minutes post treatment [1]: 20.8 s | Mean Latency Time In Seconds ± SEM, 60 minutes post treatment ([1]; listed as GsAFII): 20.8 ± 0.00 s | confounding motor deficits or overt negative side effects ([1]; 3 nmoles intrathecal): no indication | hyperalgesic, thermal-induced response ([1]; 3 nmoles intrathecal): completely reversed | paw temperature ([1]; 3 nmoles intrathecal): No significant reduction | paw volume ([1]; 3 nmoles intrathecal): No significant reduction | inhibition of the tail flick response (latency greater than ten seconds) ([2]; 2.33 nanomoles (9.27 micrograms) i.th., 15 minutes pretreatment, all animals (n=8)): Complete inhibition | confounding side effects ([2]; 2.33 nanomoles and 583 picomoles i.th.): no confounding side effects were detected | animals with 100% MPE, tail flick [2, 6]: five of six | average MPE, tail flick latency [2, 6]: 92%

Tyr-Cys-Gln-Lys-Trp-Leu-Trp-Thr-Cys-Asp-Ser-Glu-Arg-Lys-Cys-Cys-Glu-Asp-Met-Val-Cys-Arg-Leu-Trp-Cys-Lys-Lys-Arg-Leu-NH2 (YCQKWLWTCDSERKCCEDMVCRLWCKKRL-NH2; cysteine pairing not given here) [GsAF I]
dose response properties, morphine treatment versus saline arm (cross tolerance) [3]: not significantly different | activity in tail flick latency ([2]; 1.8 picomoles (6.6 nanograms) i.th., 30 minutes pretreatment): inactive | MPE, tail flick latency ([2]; 18 picomoles (66 nanograms) i.th., 30 minutes pretreatment): 29 % MPE | MPE, tail flick latency ([2]; 180 picomoles (666 nanograms) i.th., 30 minutes pretreatment): 95 % MPE | inhibition of the tail flick response (latency value greater than 10 seconds) ([2]; 180 picomoles (666 nanograms) i.th., in most rats): Complete inhibition | confounding side effects (motor disturbances, limb impairment/paralysis, righting reflex, sedation) ([2]; 180 picomoles i.th.): either minimal or not present | pretreatment time with maximal activity ([2]; i.th., tail flick): 30 min | effect of B-funaltrexamine pretreatment on analgesic activity ([4]; B-funaltrexamine 5 micrograms i.th. 18 hours prior, hot plate test or formalin test): failed to inhibit | effect of intrathecal naloxone on analgesic response ([4]; naloxone 50 μg i.th. immediately prior, 180 pmoles i.th., measured 10 minutes later): failed to inhibit | effect of naloxone pretreatment on analgesic activity ([4]; naloxone 10mg/kg subcutaneous 5 minutes prior, 180 pmoles i.th., measured 10 minutes later, tail flick and von Frey tests): failed to inhibit
